Here are results for 8 compounds from ChEMBL document CHEMBL1201862, “PubChem BioAssay data set” (2004).

Activity calls are given as the source filed them. A value given as a limit tells only on which side of the number the result lay.

The target of series [1] is RNA-editing ligase 1, mitochondrial (Trypanosoma brucei brucei, UniProt P86926). The experiment in a line: TbREL1 ligase inhibitors, dose response, biochemical, fluorescence, Trypanosoma brucei (AID 1117295). The format is functional.
Chain of RNA-editing ligase 1, mitochondrial (P86926 whole entry): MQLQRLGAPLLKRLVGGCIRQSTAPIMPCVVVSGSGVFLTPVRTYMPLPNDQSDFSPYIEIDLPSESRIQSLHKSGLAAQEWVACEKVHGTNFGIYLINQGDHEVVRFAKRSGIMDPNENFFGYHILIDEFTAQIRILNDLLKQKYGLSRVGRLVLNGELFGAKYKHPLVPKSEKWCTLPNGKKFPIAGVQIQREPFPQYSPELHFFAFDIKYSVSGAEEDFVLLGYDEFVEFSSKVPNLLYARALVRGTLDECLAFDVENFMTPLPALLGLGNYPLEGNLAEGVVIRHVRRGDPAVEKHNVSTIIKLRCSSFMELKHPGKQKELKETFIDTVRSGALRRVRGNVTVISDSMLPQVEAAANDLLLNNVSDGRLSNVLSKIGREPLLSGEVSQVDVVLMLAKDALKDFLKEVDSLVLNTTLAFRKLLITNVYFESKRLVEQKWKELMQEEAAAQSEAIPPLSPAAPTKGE
Series [2] deals with Induced myeloid leukemia cell differentiation protein Mcl-1 (Homo sapiens, UniProt Q07820). It counts as functional.
Chain of Induced myeloid leukemia cell differentiation protein Mcl-1 (Q07820 whole entry): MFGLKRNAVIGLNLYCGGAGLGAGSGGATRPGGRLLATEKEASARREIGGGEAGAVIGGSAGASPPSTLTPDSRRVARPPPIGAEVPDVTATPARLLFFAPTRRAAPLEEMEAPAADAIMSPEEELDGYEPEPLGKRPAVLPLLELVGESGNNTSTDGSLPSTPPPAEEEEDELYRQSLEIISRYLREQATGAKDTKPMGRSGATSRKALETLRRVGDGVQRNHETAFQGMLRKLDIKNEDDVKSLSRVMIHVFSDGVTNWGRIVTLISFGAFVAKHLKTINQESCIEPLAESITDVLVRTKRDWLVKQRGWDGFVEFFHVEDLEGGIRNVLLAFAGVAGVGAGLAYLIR
The target of another series is Prothrombin (Homo sapiens, UniProt P00734). The experiment in a line: Thrombin 1536 HTS Dose Response Confirmation. [Related pubchem assays: 1046 (Thrombin 1536 HTS; hits were confirmed in this assay)]. The format is functional.
The nature of another series: cells. It counts as functional, cell-based. To be noted: INS-1E.
The nature of series [3]: Dose-response inhibition of insulin secretion in a rat insulinoma line at 5 mM glucose (AID 1117331). The format is functional, cell-based. The following applies: INS-1E.
The target of series [4] is Ubiquitin carboxyl-terminal hydrolase BAP1 (Homo sapiens, UniProt Q92560). The experiment in a line: BAP1 deubiquitinase inhibitors, dose response, biochemical (AID 714). It counts as functional.
Chain of Ubiquitin carboxyl-terminal hydrolase BAP1 (Q92560 whole entry): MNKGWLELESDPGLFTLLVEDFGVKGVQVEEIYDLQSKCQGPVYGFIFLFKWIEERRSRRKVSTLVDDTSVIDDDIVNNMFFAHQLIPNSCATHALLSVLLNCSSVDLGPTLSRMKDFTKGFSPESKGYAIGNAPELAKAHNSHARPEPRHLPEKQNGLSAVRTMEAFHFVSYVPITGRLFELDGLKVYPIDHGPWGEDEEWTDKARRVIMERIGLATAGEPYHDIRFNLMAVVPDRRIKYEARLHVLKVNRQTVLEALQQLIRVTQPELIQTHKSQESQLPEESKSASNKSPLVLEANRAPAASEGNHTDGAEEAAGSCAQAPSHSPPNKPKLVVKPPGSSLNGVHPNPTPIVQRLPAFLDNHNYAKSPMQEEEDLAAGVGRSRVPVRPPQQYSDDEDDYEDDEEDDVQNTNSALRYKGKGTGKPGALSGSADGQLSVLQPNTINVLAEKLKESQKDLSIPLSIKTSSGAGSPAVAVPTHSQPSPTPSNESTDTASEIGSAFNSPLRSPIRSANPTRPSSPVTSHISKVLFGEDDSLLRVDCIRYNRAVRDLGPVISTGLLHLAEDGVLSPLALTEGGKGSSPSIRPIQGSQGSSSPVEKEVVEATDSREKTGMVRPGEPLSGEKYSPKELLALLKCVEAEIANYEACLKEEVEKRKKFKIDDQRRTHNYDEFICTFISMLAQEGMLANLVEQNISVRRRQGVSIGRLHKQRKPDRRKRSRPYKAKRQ
A short description of series [5]: Glucagon-like peptide 1 release potency, NCI-H716 cell line, dose-response, half-maximal inhibitory concentration (AID 1117344). It counts as functional, cell-based.
Series [6] is described as follows: half-maximal inhibitory concentration for glucagon-like peptide-1 release, STC-1 cell line, dose-response (AID 1117345). It counts as functional, cell-based.
The target of the next series is Cytochrome P450 2C19 (Homo sapiens, UniProt P33261). The experiment in a line: Cytochrome panel assay with activity outcomes. Panel member name: p450-cyp2c19 Compounds with AC50 equal or less than 10 uM are considered active. It counts as functional.
Chain of Cytochrome P450 2C19 (P33261 whole entry): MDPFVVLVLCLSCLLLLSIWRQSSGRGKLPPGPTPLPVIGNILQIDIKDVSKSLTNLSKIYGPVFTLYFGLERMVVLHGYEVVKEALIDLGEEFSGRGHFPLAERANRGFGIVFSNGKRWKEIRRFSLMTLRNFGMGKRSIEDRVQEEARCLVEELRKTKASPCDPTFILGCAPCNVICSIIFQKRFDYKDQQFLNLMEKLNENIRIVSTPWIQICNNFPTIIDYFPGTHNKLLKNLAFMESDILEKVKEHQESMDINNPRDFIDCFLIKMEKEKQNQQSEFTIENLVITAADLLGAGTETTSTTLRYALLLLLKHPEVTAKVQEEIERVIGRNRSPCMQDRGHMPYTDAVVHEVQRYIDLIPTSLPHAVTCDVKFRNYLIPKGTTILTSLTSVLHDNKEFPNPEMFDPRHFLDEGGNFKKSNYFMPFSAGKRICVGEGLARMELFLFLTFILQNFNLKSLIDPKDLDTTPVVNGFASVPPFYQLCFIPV
A further series addresses Ephrin type-A receptor 4 (Mus musculus, UniProt Q03137). Kind of series: inhibitors of EphA4 binding to KYL peptide, primary screen, biochemical, colorimetric, mouse EphA4 (AID 689). It counts as functional.
Series [7] deals with UDP-galactopyranose mutase (Mycobacterium tuberculosis, UniProt P9WIQ1). The experiment in a line: Inhibitors of Mycobacterium tuberculosis UDP-galactopyranose mutase (UGM) enzyme Measured in Biochemical System Using Plate Reader - 2105-02_Inhibitor_Dose_CherryPick_Activity. [Related pubchem assays (depositor defined):AID504439].
Chain of UDP-galactopyranose mutase (P9WIQ1 whole entry): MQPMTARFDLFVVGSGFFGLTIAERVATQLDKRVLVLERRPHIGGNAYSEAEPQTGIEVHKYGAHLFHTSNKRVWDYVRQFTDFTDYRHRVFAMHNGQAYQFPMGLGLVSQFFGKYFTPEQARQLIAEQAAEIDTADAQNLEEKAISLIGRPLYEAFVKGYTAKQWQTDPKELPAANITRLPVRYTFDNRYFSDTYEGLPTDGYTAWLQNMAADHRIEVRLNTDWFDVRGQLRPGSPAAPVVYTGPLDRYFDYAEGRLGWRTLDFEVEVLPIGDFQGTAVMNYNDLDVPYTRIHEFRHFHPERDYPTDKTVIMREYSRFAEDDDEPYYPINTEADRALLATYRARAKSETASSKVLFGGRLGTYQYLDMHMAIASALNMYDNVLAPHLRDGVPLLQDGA
A further series addresses 14-3-3 protein gamma (Homo sapiens, UniProt P61981). Kind of series: modulators of 14-3-3 gamma client binding – dose response (AID 711). It counts as functional.
In a further series the target is NADPH oxidase 1 (Homo sapiens, UniProt Q9Y5S8). Kind of series: Late-stage luminescence-based cell-based dose response assay to identify inhibitors of NADPH oxidase 1 (NOX1): Purchased analogs 2. The format is functional.
Chain of NADPH oxidase 1 (Q9Y5S8 whole entry): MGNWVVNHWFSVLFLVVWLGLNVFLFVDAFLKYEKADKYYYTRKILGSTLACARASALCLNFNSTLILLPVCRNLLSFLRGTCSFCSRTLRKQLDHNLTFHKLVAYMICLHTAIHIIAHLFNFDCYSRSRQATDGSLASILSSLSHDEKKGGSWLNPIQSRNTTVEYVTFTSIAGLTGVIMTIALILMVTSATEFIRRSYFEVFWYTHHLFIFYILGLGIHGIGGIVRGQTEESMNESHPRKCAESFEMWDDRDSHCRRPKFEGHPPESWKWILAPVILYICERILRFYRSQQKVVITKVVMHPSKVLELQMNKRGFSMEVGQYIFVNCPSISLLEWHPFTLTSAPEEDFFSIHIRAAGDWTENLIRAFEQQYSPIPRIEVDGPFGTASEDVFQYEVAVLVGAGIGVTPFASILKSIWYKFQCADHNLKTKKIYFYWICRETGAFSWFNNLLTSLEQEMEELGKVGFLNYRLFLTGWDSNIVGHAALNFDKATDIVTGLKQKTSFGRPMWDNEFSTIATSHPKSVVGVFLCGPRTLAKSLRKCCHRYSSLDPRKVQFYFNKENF

Chain of 14-3-3 protein gamma (P61981 whole entry): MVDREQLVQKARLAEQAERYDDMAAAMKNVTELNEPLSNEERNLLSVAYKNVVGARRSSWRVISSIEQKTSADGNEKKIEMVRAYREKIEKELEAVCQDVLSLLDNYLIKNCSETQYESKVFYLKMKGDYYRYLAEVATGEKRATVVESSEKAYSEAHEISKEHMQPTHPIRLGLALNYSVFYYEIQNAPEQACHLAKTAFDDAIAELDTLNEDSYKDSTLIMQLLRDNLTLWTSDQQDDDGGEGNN
Chain of Ephrin type-A receptor 4 (Q03137 whole entry): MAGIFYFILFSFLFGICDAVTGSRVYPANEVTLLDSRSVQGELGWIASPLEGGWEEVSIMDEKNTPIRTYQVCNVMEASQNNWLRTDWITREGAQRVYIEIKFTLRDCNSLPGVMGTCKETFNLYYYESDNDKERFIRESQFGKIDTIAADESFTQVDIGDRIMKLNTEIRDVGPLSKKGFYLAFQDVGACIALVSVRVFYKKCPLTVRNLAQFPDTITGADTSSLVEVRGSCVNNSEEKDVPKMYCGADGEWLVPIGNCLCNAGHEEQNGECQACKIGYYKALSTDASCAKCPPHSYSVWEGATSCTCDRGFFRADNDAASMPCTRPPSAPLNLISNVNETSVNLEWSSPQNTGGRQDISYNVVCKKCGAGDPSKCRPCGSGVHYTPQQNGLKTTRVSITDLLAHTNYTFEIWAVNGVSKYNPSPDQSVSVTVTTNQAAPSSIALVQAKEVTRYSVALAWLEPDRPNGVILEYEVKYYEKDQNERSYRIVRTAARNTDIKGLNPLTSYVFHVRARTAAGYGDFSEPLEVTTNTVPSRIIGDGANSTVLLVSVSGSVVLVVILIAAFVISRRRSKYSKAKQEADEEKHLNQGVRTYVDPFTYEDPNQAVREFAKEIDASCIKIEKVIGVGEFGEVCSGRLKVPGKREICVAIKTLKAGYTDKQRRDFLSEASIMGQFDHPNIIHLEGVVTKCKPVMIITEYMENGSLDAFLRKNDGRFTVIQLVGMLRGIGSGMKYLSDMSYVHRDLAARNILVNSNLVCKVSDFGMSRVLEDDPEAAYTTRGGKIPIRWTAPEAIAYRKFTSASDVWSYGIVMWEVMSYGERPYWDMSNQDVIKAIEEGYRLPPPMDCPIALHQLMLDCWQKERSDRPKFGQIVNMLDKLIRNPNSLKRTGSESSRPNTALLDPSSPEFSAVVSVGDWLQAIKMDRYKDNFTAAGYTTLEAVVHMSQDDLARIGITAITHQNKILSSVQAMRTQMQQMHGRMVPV

With `COC(=O)C1=C(C)N(Cc2cccc(C(F)(F)F)c2)C(NCc2ccccc2)=NC1c1ccccc1C(F)(F)F` (stereo not drawn), in [1], the IC50 is > 96.6 µM (inactive).
In the case of `O=[N+]([O-])c1ccc(-c2cc(O)n3nc(-c4ccc(Cl)cc4)cc3n2)cc1`, the values for the IC50 (in [2]; on Prothrombin) were 1.72 µM (active) and > 50 µM (not active), respectively.
Consider `Oc1ccc(CCNCCCCCCNCCc2ccccc2)cc1O` [DOPEXAMINE], for which the IC50 (in the series “cells”; in [3]) was > 33.3 µM (inactive) each time.
Take `Nc1c(C(O)(C(F)(F)F)C(F)(F)F)ccc2ccccc12`: in series [4], the concentration for half-maximal inhibition (IC50) is reported as > 50 µM (not active).
`NC[C@@H]1O[C@H](O[C@H]2[C@H](O)[C@H](O[C@H]3[C@@H](O)[C@H](N)C[C@H](N)[C@H]3O[C@H]3O[C@H](CN)[C@H](O)[C@H](O)[C@H]3N)O[C@@H]2CO)[C@@H](N)[C@@H](O)[C@@H]1O`: the IC50 in series [5] and in [6] was > 40 µM (inactive) in each case.
Take `CCCCn1nc(-c2ccccc2)c2nc3ccccc3nc21`: the half-maximal activity concentration (AC50) result on Cytochrome P450 2C19 was “inconclusive”; in [7], 41.9 µM (active). For the same compound, the IC50 on Ephrin type-A receptor 4 is 13.1 µM (active).
For `COCCNC(=O)C(c1ccncc1)N(C(=O)Cn1nnc2ccccc21)c1ccc(OC)cc1` (stereo not drawn), the 50% inhibitory concentration (IC50) on 14-3-3 protein gamma is 24.6 µM (active).
Take `O=[N+]([O-])c1ccc(/C=N/Nc2c(Cl)cc(Cl)cc2Cl)cc1`: the IC50 at NADPH oxidase 1 is > 17 µM (not active).

The term IC50 denotes the point on the concentration scale where inhibition reaches its midpoint. The term AC50 denotes the midpoint of the concentration-response curve, whichever way the signal moves.
